# Test results reported in ChEMBL document CHEMBL1143788, “Trifunctional norrisolide probes for the study of Golgi vesiculation” (2007).
# Active and inactive are the calls of the source. The calls are words filed in the database; no cut-off is given here.
# Assays:
# [1] = test system: NRK; assay: Effect on Golgi fragmentation in NRK cells at 30 uM for 60 mins; format: functional, Rattus norvegicus
# [2] = test system: NRK; assay: Effect on Golgi fragmentation in NRK cells for 60 mins; format: functional, Rattus norvegicus
structure (smiles),measurement,setting,value
CC1(C)CCC[C@]2(C)[C@@H](OC(=O)c3ccc(N=[N+]=[N-])cc3OCCCNC(=O)CCCC[C@@H]3SC[C@@H]4NC(=O)N[C@@H]43)CC[C@@H]12,Activity,[1],50%
CC1(C)CCC[C@]2(C)[C@@H](OC(=O)c3ccc(OCCCNC(=O)CCCC[C@@H]4SC[C@@H]5NC(=O)N[C@@H]54)cc3OCC3CO3)CC[C@@H]12 (stereo not given in full),Activity,[2],<10%
CC1(C)CCC[C@]2(C)[C@@H](OC(=O)c3cc(I)c(OCC4CO4)cc3OCC3CO3)CC[C@@H]12 (stereo not given in full),Activity,[2],>80%
CC1(C)CCC[C@]2(C)[C@@H](OC(=O)c3ccc(OCC4CO4)cc3OCC(=O)NCCOCCOCCNC(=O)CCCC[C@@H]3SC[C@@H]4NC(=O)N[C@@H]43)CC[C@@H]12 (stereo not given in full),Activity,[2]; Rattus norvegicus,Active
COC(=O)c1ccc(N=[N+]=[N-])cc1OCCCNC(=O)CCCC[C@@H]1SC[C@@H]2NC(=O)N[C@@H]21,Activity,[1]; Rattus norvegicus,inactive
